Measured values as given in patent publication US12544382B2, “2, 4, 6-tri-substituted pyrimidine compound as ATR kinase inhibitor” (BEIJING TIDE PHARMACEUTICAL CO., LTD., priority 2019, dated 2026).

Experiments:
ATR kinase = ATR kinase (Homo sapiens (Human), UniProt Q13535); experiment: ATR kinase activity assay (time-resolved fluorescence, p53 substrate phosphorylation); assay type: biochemical
Procedure: Biotinylated protein derived from p53 (Eurofins, art. No.: 14-952) was phosphorylated with ATR kinase. The amount of phosphorylated protein was determined by time-resolved fluorescence in this assay. The amount of phosphorylated protein was detected by anti-p53-phospho-(serine 15)-K-specific antibody (Cisbio, art. No.: 61GSTDLA) and d2 labeled anti-GST antibody (Cisbio, art. No. 61P08KAE). Before the experiment, the following working solution was prepared as required: 1× reaction buffer (20 mM HEPES PH8.0, 1% glycerol, 0.01% Brij-35), dilution buffer (20 mM HEPES PH8.0, 1% glycerol, 0.01% Brij-35, 5 mM DTT and 1% BSA), stop solution (20 mM HEPES PH8.0, 1% glycerol, 0.01% Brij-35, 250 mM EDTA), detection buffer (50 mM HEPES pH7.0, 150 mM NaCl, 267 mM KF, 0.1% sodium cholate, 0.01% Tween-20, 0.0125% sodium azide). The reagents used above are purchased from Sigma or Invitrogen, except for those where the manufacturer was mentioned.
Operations are as follows:
4× gradient dilution of compound solutions was prepared with 1× reaction buffer to obtain 9 compound solutions of different concentrations, and 2.5 μL 4× gradient dilution of compound solutions was added to a 384-well analysis plate (784075, Greiner). 4× p53 substrate working solution (40 nM) was prepared with 1× reaction buffer, and 2.5 μL 4× p53 substrate working solution was added to the 384-well analysis plate. 4×ATR/ATRIP working solution (12.8 ng/μL) was prepared with dilution buffer, and 2.5 μL 4×pATR/ATRIP working solution was added to the 384-well analysis plate. 4×ATP working solution (2 mM) was prepared with deionized water, 2.5 μL 4×ATP working solution was added to the 384-well analysis plate, and incubated at room temperature in dark for 30 minutes. 5 μL stop solution was added to the 384 analysis plate. Finally, 5 μL test mixture (0.084 ng/μL Anti-phospho-p53(ser15)-K and 5 ng/μL Anti-GST-d2) was added to the 384 well analysis plate, incubated overnight at room temperature, and the fluorescence signal was detected with ENVISION (Perkinelmer) instrument (excitation wavelength: 320 nm, emission wavelength: 665 nm and 615 nm). The inhibition rate in each well was calculated by the fluorescence intensity value of each hole: ER (Emission Ratio)=(Fluorescence intensity at 665 nm/Fluorescence intensity at 615 nm); inhibition rate=(ER positive-ER test compound)/(ER positive-ER negative)×100%, the IC50 value of compounds were calculated by standard parameter fitting software (GraphPad Prism 6.0).

MV4-11 (leukemia) cells = experiment: In vitro cell proliferation inhibition assay (CellTiter-Glo), MV4-11; assay type: cell-based, human; conditions: MV4-11 cells, 120 hours
Procedure: By detecting the effect of compound on cell activity in vitro in the tumor cell lines TOV21G (ovarian cancer) and MV4-11 (leukemia), the effect of compound inhibiting cell proliferation was studied in this assay.
TOV21G cells and MV4-11 cells were purchased from American Type Culture Collection (ATCC).
MV-4-11 cells were cultured in IMDM medium (containing 20% FBS), each well of a 96-well culture plate was inoculated with about 10000 cells, and treated with different concentrations (0-10 μM) of compounds to be tested in triplex. Blank wells (containing medium only) and control wells (inoculated with cells but not treated with drug) were set. Cells were cultured for 120 hours, 40 μL Cell Titer-Glo solution was added to each well, incubated with shaking for 20 min in the dark, 100 μL solution was transferred from each well to a 96-well white plate, and the luminescence value was read by Biotek Synergy H1 multifunctional microplate reader. Inhibition rate (%)=100%×(control well−test well)/(control well−blank well)

Chain of ATR kinase (Q13535 whole entry): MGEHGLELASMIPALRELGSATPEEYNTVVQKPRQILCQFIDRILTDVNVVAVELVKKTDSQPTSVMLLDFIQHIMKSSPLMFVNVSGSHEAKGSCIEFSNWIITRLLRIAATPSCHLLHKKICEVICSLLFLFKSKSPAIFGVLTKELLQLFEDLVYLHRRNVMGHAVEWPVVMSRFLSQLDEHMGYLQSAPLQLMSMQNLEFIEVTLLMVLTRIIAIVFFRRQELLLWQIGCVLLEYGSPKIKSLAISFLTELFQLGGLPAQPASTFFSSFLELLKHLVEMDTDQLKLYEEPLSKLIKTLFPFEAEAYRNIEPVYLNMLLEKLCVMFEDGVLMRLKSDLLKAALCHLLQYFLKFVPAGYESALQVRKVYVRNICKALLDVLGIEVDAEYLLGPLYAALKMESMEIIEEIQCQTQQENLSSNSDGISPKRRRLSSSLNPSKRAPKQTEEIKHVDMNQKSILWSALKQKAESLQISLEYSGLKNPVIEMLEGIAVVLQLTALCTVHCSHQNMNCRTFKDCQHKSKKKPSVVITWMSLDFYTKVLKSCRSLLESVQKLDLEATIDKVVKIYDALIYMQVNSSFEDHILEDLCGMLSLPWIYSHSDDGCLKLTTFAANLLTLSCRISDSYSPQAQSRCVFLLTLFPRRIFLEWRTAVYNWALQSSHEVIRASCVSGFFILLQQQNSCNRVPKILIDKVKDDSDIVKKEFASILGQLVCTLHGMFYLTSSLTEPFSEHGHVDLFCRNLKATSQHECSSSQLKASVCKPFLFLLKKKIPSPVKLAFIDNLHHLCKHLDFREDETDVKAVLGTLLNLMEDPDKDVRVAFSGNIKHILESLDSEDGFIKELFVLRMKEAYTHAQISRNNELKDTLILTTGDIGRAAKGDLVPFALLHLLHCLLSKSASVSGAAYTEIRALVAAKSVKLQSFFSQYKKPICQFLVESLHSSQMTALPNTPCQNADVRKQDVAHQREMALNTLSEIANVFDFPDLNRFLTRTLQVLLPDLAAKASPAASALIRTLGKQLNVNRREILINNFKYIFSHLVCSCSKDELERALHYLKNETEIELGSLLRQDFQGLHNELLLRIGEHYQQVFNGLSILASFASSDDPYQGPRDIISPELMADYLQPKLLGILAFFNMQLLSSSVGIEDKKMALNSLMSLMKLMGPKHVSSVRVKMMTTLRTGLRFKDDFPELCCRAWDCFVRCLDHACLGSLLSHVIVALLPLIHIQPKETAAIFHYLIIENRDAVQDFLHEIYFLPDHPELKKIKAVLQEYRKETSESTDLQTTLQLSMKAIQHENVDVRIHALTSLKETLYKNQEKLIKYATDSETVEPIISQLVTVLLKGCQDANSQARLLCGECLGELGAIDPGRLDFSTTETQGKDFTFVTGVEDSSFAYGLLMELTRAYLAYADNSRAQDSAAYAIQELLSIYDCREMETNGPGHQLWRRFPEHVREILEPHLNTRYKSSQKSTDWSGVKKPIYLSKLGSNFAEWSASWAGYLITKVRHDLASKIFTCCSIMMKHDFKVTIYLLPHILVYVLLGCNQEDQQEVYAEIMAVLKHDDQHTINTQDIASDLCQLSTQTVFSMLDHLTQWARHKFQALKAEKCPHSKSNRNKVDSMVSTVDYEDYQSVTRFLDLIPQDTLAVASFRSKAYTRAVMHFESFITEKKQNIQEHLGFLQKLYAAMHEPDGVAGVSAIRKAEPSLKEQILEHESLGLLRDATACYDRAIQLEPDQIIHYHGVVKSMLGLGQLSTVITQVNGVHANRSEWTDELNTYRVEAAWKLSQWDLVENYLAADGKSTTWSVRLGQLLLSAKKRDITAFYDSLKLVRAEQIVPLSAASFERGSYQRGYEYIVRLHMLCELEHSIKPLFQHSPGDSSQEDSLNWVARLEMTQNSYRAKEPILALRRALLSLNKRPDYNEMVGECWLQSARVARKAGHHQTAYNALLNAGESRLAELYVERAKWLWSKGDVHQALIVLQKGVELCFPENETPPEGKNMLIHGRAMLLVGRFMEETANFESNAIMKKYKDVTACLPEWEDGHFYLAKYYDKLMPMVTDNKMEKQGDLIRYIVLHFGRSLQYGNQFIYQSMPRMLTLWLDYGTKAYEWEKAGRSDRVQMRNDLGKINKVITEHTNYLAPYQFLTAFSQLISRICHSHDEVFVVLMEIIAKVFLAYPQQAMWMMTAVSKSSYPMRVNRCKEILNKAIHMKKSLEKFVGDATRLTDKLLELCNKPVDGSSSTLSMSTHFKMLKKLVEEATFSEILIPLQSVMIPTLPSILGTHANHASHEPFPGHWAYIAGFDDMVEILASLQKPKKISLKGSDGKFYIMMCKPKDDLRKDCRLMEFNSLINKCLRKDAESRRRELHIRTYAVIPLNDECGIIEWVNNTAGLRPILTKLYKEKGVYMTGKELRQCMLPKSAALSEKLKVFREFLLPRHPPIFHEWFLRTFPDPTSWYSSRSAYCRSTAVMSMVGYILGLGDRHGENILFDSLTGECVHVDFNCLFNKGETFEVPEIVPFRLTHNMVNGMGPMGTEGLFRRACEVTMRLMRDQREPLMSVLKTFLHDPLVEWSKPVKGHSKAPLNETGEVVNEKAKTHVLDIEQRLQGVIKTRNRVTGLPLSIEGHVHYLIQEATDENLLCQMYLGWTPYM
Chain of ATR kinase (Q8WXE1 whole entry partner): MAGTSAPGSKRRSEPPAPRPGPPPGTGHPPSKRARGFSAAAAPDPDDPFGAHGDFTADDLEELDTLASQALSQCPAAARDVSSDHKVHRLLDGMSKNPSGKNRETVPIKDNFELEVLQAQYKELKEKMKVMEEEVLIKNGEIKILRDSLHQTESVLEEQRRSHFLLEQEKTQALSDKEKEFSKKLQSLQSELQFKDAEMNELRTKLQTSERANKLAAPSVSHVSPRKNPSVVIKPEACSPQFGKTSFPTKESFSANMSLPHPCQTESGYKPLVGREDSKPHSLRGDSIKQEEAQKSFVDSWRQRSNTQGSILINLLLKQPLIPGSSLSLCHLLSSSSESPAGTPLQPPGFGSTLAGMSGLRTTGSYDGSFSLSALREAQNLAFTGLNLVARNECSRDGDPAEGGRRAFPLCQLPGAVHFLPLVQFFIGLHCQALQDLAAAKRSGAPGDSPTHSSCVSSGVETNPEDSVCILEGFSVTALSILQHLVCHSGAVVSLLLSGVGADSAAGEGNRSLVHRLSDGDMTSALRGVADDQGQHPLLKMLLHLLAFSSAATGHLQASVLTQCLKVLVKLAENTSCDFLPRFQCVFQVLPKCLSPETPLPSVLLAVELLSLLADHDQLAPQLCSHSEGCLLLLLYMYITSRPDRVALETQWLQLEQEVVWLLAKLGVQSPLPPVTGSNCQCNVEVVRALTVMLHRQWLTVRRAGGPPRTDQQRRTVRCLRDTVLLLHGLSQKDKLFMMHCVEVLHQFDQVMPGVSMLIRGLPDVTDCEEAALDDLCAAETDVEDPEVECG

| SMILES | IC50 (ATR kinase) | IC50 (MV4-11 (leukemia) cells) |
| --- | --- | --- |
| Cc1c(-c2cc(N3CCOC[C@H]3C)nc(-c3ccnc4[nH]ccc34)n2)c(C(F)(F)F)nn1C [Compound A8] | 21 nM |  |
| Cc1nn(CCN(C)C)c(C)c1-c1cc(N2CCOC[C@H]2C)nc(-c2ccnc3[nH]ccc23)n1 [Compound A21] | 56 nM |  |
| CC(C)S(=O)(=O)c1ccc(C(F)(F)F)c(-c2cc(N3CCOC[C@H]3C)nc(-c3ccnc4[nH]ccc34)n2)c1 [Compound A29] | 631 nM |  |
| CCN(C)S(=O)(=O)c1ccc(C(C)C)c(-c2cc(N3CCOC[C@H]3C)nc(-c3ccnc4[nH]ccc34)n2)c1 [Compound A33] | 936 nM |  |
| Cc1ccc(S(=O)(=O)C(C)C)cc1-c1cc(N2CCOC[C@H]2C)nc(-c2ccnc3[nH]ccc23)n1 [Compound A39] | 121 nM |  |
| Cc1nn(C(C)C)c(C)c1-c1nc(-c2ccnc3[nH]ccc23)cc(N2CCOC[C@H]2C)n1 [Compound B6] | 979 nM |  |
| Cc1nn(CC2CCCN(C)C2)c(C)c1-c1cc(N2CCOC[C@H]2C)nc(-c2ccnc3[nH]ccc23)n1 (some centres unmarked) [Compound A38] | 30 nM |  |
| Cc1ccc(S(=O)(=O)N(C)C)cc1-c1cc(N2CCOC[C@H]2C)nc(-c2ccnc3[nH]ccc23)n1 [Compound A10] | 25 nM |  |
| C[C@@H]1COCCN1c1cc(-c2ccnc3[nH]ccc23)nc(-c2cccc(S(C)(=O)=O)c2)n1 [Compound B2] | 4300 nM |  |
| CCN(C)S(=O)(=O)c1ccc(OC)c(-c2cc(N3CCOC[C@H]3C)nc(-c3ccnc4[nH]ccc34)n2)c1 [Compound A30] | 110 nM |  |
| COc1ccc(S(=O)(=O)C(C)C)cc1-c1cc(N2CCOC[C@H]2C)nc(-c2ccnc3[nH]ccc23)n1 [Compound A13] | 66 nM |  |
| C[C@@H]1COCCN1c1cc(-c2ccc(S(C)(=O)=O)cc2)nc(-c2ccnc3[nH]ccc23)n1 [Compound A5] | > 10000 nM |  |
| Cc1c(-c2cc(N3CCOC[C@H]3C)nc(-c3cc(F)cc4[nH]ccc34)n2)c(C(F)(F)F)nn1C1CC2(CNC2)C1 [Compound D50] | 3 nM | 810 nM |
| Cc1nn(C)c(C)c1-c1nc(-c2ccnc3[nH]ccc23)nc(N2CCOC[C@H]2C)n1 [Compound C1] | 41 nM |  |
| CCNC(=O)Nc1nc2ccccc2n1-c1nc(-c2c(C)nn(C3CCNCC3)c2C(F)(F)F)cc(N2CCOC[C@@H]2C)n1 [Compound D37] | 71 nM |  |
| Cc1ccc(S(=O)(=O)NCCCO)cc1-c1cc(N2CCOC[C@H]2C)nc(-c2ccnc3[nH]ccc23)n1 [Compound A40] | 50 nM |  |

| SMILES | IC50 (ATR kinase) | IC50 (MV4-11 (leukemia) cells) |
| --- | --- | --- |
| Cc1ccc(S(=O)(=O)C2CCN(C)CC2)cc1-c1cc(N2CCOC[C@H]2C)nc(-c2ccnc3[nH]ccc23)n1 [Compound A36] | 91 nM |  |
| CCN1CCN(S(=O)(=O)c2ccc(C)c(-c3cc(N4CCOC[C@H]4C)nc(-c4ccnc5[nH]ccc45)n3)c2)CC1 [Compound A35] | 63 nM |  |
| Cc1nn(C2CCNCC2)c(C(F)(F)F)c1-c1cc(N2CCOC[C@H]2C)nc(-n2c(CO)nc3cc(F)ccc32)n1 [Compound D32] | 1770 nM |  |
| C[C@@H]1COCCN1c1cc(-c2ccnc3[nH]ccc23)nc(-c2ccc(S(C)(=O)=O)cc2)n1 [Compound B3] | > 10000 nM |  |
| C[C@@H]1COCCN1c1cc(-c2ccnn2C2CCCCC2)nc(-c2ccnc3[nH]ccc23)n1 [Compound A17] | 2270 nM |  |
| Cc1ccc(S(C)(=O)=O)cc1-c1cc(N2CCOC[C@H]2C)nc(-c2ccnc3[nH]ccc23)n1 [Compound A9] | 31 nM |  |
| CSc1nc2cc(F)ccc2n1-c1nc(-c2c(C)nn(C3CCNCC3)c2C(F)(F)F)cc(N2CCOC[C@H]2C)n1 [Compound D31] | 2700 nM |  |
| CCNC(=O)Nc1ccc(-c2nc(-c3c(C)nn(C)c3C)cc(N3CCOC[C@H]3C)n2)cc1 [Compound A26] | 2170 nM |  |
| Cc1c(-c2nc(-c3ccnc4[nH]ccc34)cc(N3CCOC[C@H]3C)n2)cnn1C [Compound B4] | 1720 nM |  |
| C[C@@H]1COCCN1c1cc(-c2cccc(S(C)(=O)=O)c2)nc(-c2ccnc3[nH]ccc23)n1 [Compound A4] | 179 nM |  |
| Cc1ccc(S(=O)(=O)N(C)CCN(C)C)cc1-c1cc(N2CCOC[C@H]2C)nc(-c2ccnc3[nH]ccc23)n1 [Compound A34] | 282 nM |  |
| Cc1nn(CCCN(C)C)c(C)c1-c1cc(N2CCOC[C@H]2C)nc(-c2ccnc3[nH]ccc23)n1 [Compound A22] | 81 nM |  |
| CNc1nc2ccc(F)cc2n1-c1nc(-c2c(C(F)(F)F)nn(C3CCCNC3)c2C)cc(N2CCOC[C@@H]2C)n1 (some centres unmarked) [Compound D34] | 73 nM |  |
| Cc1nn(C)cc1-c1nc(-c2ccnc3[nH]ccc23)cc(N2CCOC[C@H]2C)n1 [Compound B5] | 1610 nM |  |
| Cc1nn(C)c(C)c1-c1nc(-c2ccnc(C(F)F)c2)cc(N2CCOC[C@H]2C)n1 [Compound B8] | > 10000 nM |  |
| Cc1c(-c2cc(N3CCOC[C@H]3C)nc(-c3ccc(C#N)c4[nH]ccc34)n2)c(C(F)(F)F)nn1C1CCNCC1 [Compound D5] | 108 nM |  |

Further lines, results first:

| IC50 (ATR kinase) | IC50 (MV4-11 (leukemia) cells) | SMILES |
| --- | --- | --- |
| 37 nM |  | Cc1nn(C2CCN(C)CC2)c(C)c1-c1cc(N2CCOC[C@H]2C)nc(-c2ccnc3[nH]ccc23)n1 [Compound A37] |
| 47 nM |  | Cc1nn(CC2CNC2)c(C)c1-c1cc(N2CCOC[C@H]2C)nc(-c2ccnc3[nH]ccc23)n1 [Compound A18] |
| 21 nM |  | Cc1nn(C(C)C)c(C)c1-c1cc(N2CCOC[C@H]2C)nc(-c2ccnc3[nH]ccc23)n1 [Compound A15] |
| 340 nM |  | Cc1nn(CC2CNC2)c(C)c1-c1nc(-c2ccnc3[nH]ccc23)cc(N2CCOC[C@H]2C)n1 [Compound B7] |
| 48 nM |  | CCN1CCC(n2nc(C)c(-c3cc(N4CCOC[C@H]4C)nc(-c4ccnc5[nH]ccc45)n3)c2C)C1 (some centres unmarked) [Compound A31] |
| 98 nM |  | CCN1CCC(n2nc(C)c(-c3cc(N4CCOC[C@H]4C)nc(-c4ccnc5[nH]ccc45)n3)c2C)CC1 [Compound A20] |
| 25 nM |  | Cc1nn(CC2CCOC2)c(C)c1-c1cc(N2CCOC[C@H]2C)nc(-c2ccnc3[nH]ccc23)n1 (some centres unmarked) [Compound A28] |
| 255 nM |  | Cc1nn(C)c(C)c1-c1nc(-c2ccnc3[nH]ccc23)cc(N2CCOC[C@H]2C)n1 [Compound B1] |
| 15 nM |  | Cc1nn(CCCO)c(C)c1-c1cc(N2CCOC[C@H]2C)nc(-c2ccnc3[nH]ccc23)n1 [Compound A11] |
| 18 nM |  | Cc1nn(CC2COC2)c(C)c1-c1cc(N2CCOC[C@H]2C)nc(-c2ccnc3[nH]ccc23)n1 [Compound A19] |
| 4 nM |  | Cc1nn(C2CCNCC2)c(C)c1-c1cc(N2CCOC[C@H]2C)nc(-c2ccnc3[nH]ccc23)n1 [Compound A16] |
| 44 nM |  | Cc1nn(CC(C)(C)O)c(C)c1-c1cc(N2CCOC[C@H]2C)nc(-c2ccnc3[nH]ccc23)n1 [Compound A12] |
| 11 nM |  | Cc1nn(CS(C)(=O)=O)c(C)c1-c1cc(N2CCOC[C@H]2C)nc(-c2ccnc3[nH]ccc23)n1 [Compound A41] |
| 27 nM |  | Cc1nn(C2CCCN(C)C2)c(C)c1-c1cc(N2CCOC[C@H]2C)nc(-c2ccnc3[nH]ccc23)n1 (some centres unmarked) [Compound A32] |
| 57 nM |  | Cc1nn(C2CCOCC2)c(C)c1-c1cc(N2CCOC[C@H]2C)nc(-c2ccnc3[nH]ccc23)n1 [Compound A24] |
| 571 nM |  | COCCn1nc(C)c(-c2cc(N3CCOC[C@H]3C)nc(-c3ccnc4[nH]ccc34)n2)c1C [Compound A14] |
| 14 nM |  | Cc1nn(C2CCN(S(C)(=O)=O)C2)c(C)c1-c1cc(N2CCOC[C@H]2C)nc(-c2ccnc3[nH]ccc23)n1 (some centres unmarked) [Compound A23] |
